# Molecular target: recombinant EZH2-641F complex (EZH2 Y641F/EED/SUZ12/RbAp48/AEBP2) (Homo sapiens (Human), UniProt Q15910, Y641F)
# Assay: EZH2 Histone Methyl Transferase Assay (scintillation proximity assay)
# Format: biochemical
# Conditions: 350 nM histone peptide substrate, 500 nM 3H-SAM, 3 hours room temperature
# Protocol: EZH2 Histone Methyl Transferase Assay
# The effectiveness of compounds of the present invention as inhibitors of histone methyl transferases can be readily tested by assays known to those skilled in the art. For example, in vitro histone methyl transferase assays may be conducted with a relevant purified histone methyl transferase and an appropriate synthetic substrate to determine the inhibitory activity of the compounds. Assays for inhibition of EZH2 by the instant compounds were performed in 384-well plates with reaction mixtures containing 350 nM of histone peptide substrate (ATKAAR-K(Me2)-SAPATGGVKKPHRYRPG-GK(Biotin), 500 nM S-[methyl-^3H]adenosyl-L-methionine (55-85 Ci/mmol), 50 mM Tris-HCl (pH 9.0), 50 mM NaCl, 1 mM dithiothreitol, Tween-20 at 0.01% and fatty-acid free bovine serum albumin at 0.01%, and recombinant EZH2-641F complex (EZH2 Y641F/EED/SUZ12/RbAp48/AEBP2) at 5 nM (>98% purity, BPS Bioscience) or 15 nM (50% purity, in-house). Reaction mixtures were incubated at room temperature for 3 hours, and the reactions were terminated by 0.005% poly-L-lysine solution in 20 mM Tris-HCl (pH 7.5) and 150 mM NaCl. Reaction products were captured by binding to strepavidin-conjugated imaging beads. Incorporation of radioactive methyl group into the histone peptide substrate was determined in Leadseeker (GE Healthcare) by means of scintillation proximity assay. Dose response curves were generated to determine the concentration required to inhibit 50% of methyl transferase activity (EC50). Compounds were dissolved at 10 mM in dimethylsulfoxide (DMSO) and evaluated at eleven concentrations. EC50 values were derived by non-linear regression analysis.
# Sequence of recombinant EZH2-641F complex (EZH2 Y641F/EED/SUZ12/RbAp48/AEBP2) (Q15910 whole entry Y641F): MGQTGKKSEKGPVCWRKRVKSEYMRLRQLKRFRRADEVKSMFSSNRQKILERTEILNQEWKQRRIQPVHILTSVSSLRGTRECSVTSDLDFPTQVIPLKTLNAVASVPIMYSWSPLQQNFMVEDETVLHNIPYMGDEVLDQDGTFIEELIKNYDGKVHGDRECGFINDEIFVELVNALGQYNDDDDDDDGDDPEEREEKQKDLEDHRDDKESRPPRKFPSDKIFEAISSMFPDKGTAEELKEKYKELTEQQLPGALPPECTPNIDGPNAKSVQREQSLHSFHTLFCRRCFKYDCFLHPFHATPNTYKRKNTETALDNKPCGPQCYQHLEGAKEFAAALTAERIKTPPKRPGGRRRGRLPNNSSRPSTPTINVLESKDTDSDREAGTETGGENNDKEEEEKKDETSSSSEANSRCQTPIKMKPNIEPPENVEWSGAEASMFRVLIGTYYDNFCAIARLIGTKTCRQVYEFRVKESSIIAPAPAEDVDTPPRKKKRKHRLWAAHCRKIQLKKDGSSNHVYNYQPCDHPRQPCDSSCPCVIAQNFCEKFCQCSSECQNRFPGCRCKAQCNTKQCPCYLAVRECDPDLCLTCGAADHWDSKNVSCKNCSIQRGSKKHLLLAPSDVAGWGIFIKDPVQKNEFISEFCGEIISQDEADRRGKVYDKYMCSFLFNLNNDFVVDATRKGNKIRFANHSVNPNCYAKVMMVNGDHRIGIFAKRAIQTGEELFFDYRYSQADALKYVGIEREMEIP
# Sequence of recombinant EZH2-641F complex (EZH2 Y641F/EED/SUZ12/RbAp48/AEBP2) (O75530 whole entry partner): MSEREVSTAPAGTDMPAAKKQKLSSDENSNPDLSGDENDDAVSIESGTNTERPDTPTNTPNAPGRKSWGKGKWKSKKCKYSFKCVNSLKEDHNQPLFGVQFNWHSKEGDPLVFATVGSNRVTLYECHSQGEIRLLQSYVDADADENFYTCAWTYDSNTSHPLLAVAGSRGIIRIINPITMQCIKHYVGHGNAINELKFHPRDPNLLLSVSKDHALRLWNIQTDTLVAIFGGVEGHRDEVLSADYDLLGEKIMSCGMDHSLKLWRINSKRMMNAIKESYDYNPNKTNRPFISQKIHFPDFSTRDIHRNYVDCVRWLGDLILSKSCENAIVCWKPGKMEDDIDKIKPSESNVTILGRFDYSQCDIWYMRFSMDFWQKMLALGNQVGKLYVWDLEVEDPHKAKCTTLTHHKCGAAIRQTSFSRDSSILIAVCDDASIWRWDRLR
# Sequence of recombinant EZH2-641F complex (EZH2 Y641F/EED/SUZ12/RbAp48/AEBP2) (Q15022 whole entry partner): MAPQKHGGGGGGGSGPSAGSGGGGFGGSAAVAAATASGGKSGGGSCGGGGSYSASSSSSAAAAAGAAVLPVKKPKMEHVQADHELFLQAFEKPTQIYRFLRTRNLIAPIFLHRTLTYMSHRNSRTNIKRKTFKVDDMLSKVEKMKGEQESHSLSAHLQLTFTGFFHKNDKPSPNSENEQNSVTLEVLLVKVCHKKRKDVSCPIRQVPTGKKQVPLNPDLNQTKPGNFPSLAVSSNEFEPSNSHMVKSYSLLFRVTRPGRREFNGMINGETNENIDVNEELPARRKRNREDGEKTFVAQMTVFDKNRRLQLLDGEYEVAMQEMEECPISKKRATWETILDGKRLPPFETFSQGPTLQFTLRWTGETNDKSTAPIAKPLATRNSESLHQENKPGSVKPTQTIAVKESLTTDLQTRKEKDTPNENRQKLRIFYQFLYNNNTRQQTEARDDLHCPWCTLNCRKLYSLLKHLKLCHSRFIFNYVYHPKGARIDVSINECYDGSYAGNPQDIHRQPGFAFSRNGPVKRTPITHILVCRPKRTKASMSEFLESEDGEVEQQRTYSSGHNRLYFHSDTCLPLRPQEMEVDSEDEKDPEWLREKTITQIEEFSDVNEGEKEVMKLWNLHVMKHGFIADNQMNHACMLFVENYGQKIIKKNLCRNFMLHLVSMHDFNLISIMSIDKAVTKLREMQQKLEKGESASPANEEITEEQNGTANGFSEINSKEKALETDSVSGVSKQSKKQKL
# Sequence of recombinant EZH2-641F complex (EZH2 Y641F/EED/SUZ12/RbAp48/AEBP2) (Q09028 whole entry partner): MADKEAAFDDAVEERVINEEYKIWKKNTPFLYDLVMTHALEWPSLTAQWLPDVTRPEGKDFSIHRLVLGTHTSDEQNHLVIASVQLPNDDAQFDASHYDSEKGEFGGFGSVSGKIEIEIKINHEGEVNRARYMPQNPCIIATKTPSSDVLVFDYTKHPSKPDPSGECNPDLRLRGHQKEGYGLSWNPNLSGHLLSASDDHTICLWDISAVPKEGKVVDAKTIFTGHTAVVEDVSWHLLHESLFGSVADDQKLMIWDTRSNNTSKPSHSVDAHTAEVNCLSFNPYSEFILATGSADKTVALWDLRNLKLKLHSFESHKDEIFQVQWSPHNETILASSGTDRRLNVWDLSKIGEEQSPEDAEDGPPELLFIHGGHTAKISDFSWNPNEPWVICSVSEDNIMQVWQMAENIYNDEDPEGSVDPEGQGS
# Sequence of recombinant EZH2-641F complex (EZH2 Y641F/EED/SUZ12/RbAp48/AEBP2) (Q6ZN18 whole entry partner): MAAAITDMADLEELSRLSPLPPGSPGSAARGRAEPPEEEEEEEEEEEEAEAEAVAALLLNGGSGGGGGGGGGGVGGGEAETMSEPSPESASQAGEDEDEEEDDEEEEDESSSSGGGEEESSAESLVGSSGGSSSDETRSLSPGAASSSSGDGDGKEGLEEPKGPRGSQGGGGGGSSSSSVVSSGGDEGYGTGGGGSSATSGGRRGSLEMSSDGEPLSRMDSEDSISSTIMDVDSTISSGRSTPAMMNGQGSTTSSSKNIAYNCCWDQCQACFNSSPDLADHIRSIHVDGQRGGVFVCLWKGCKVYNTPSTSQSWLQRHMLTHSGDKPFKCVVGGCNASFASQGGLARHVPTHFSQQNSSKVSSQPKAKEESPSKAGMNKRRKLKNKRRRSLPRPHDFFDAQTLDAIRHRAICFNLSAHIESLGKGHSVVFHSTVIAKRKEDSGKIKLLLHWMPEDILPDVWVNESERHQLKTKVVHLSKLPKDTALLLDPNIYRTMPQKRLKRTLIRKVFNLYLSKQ
row,IC50,SMILES
1,> 1 µM,"Cc1cc(C)c(CNC(=O)c2cc(Br)c3c(c2)[C@@H](C)[C@H](C)O3)c(=O)[nH]1 (racemic) [Example 40, rac-(2S,3R)-7-bromo-N-((4,6-dimethyl-2-oxo-1,2-dihydropyridin-3-yl)methyl)-2,3-dimethyl-2,3-dihydrobenzofuran-5-carboxamide]"
2,> 1 µM,"Cc1cc(C)c(CNC(=O)c2cc(Br)c3c(c2)[C@@H]2CCC[C@]2(C)O3)c(=O)[nH]1 (racemic) [Example 64, rac-(3aS,8bS)-5-Bromo-N-((4,6-dimethyl-2-oxo-1,2-dihydropyridin-3-yl)methyl)-3a-methyl-2,3,3a,8b-tetrahydro-1H-cyclopenta[b]benzofuran-7-carboxamide]"
3,< 0.5 µM,"Cc1cc(C)c(CNC(=O)c2cc(-c3ccc(N4CCNCC4)nc3)c3c(c2)[C@@H]2CCC[C@]2(C)O3)c(=O)[nH]1 (racemic) [Example 65, rac-(3aS,8bS)—N-((4,6-Dimethyl-2-oxo-1,2-dihydropyridin-3-yl)methyl)-3a-methyl-5-(6-(piperazin-1-yl)pyridin-3-yl)-2,3,3a,8b-tetrahydro-1H-cyclopenta[b]benzofuran-7-carboxamide]"
4,0.5 to 1 µM,"COc1ccc(-c2cc(C(=O)NCc3c(C)cc(C)[nH]c3=O)cc3c2O[C@@]2(C)CCC[C@@H]32)cn1 (racemic) [Example 66, rac-(3aS,8bS)—N-((4,6-Dimethyl-2-oxo-1,2-dihydropyridin-3-yl)methyl)-5-(6-methoxypyridin-3-yl)-3a-methyl-2,3,3a,8b-tetrahydro-1H-cyclopenta[b]benzofuran-7-carboxamide]"
5,0.5 to 1 µM,"Cc1cc(C)c(CNC(=O)c2cc(-c3ccc(CN4CCCCC4)cc3)c3c(c2)[C@@H]2CCC[C@]2(C)O3)c(=O)[nH]1 (racemic) [Example 67, rac-(3aS,8bS)—N-((4,6-Dimethyl-2-oxo-1,2-dihydropyridin-3-yl)methyl)-3a-methyl-5-(4-(piperidin-1-ylmethyl)phenyl)-2,3,3a,8b-tetrahydro-1H-cyclopenta[b]benzofuran-7-carboxamide]"
6,0.5 to 1 µM,"Cc1cc(C)c(CNC(=O)c2cc(-c3ccc(N4CCNCC4)cc3)c3c(c2)[C@@H]2CCC[C@]2(C)O3)c(=O)[nH]1 (racemic) [Example 68, rac-(3aS,8bS)—N-((4,6-Dimethyl-2-oxo-1,2-dihydropyridin-3-yl)methyl)-3a-methyl-5-(4-(piperazin-1-yl)phenyl)-2,3,3a,8b-tetrahydro-1H-cyclopenta[b]benzofuran-7-carboxamide]"
7,< 0.5 µM,"Cc1cc(C)c(CNC(=O)c2cc3c(c(Br)c2C)O[C@@]2(C)CCC[C@@H]32)c(=O)[nH]1 (racemic) [Example 69, rac-(3aS,8bS)-5-Bromo-N-((4,6-dimethyl-2-oxo-1,2-dihydropyridin-3-yl)methyl)-3a,6-dimethyl-2,3,3a,8b-tetrahydro-1H-cyclopenta[b]benzofuran-7-carboxamide]"
8,< 0.5 µM,"Cc1cc(C)c(CNC(=O)c2cc(Br)c3c(c2)CC(C)(C)O3)c(=O)[nH]1 [Example 1, 7-Bromo-N-((4,6-dimethyl-2-oxo-1,2-dihydropyridin-3-yl)methyl)-2,2-dimethyl-2,3-dihydrobenzofuran-5-carboxamide]"
9,> 1 µM,"Cc1cc(C)c(CNC(=O)c2ccc3c(c2)CC(C)(C)O3)c(=O)[nH]1 [Example 2, N-((4,6-Dimethyl-2-oxo-1,2-dihydropyridin-3-yl)methyl)-2,2-dimethyl-2,3-dihydrobenzofuran-5-carboxamide]"
10,> 1 µM,"Cc1cc(C)c(CNC(=O)c2cc(Cl)c3c(c2)CC(C)(C)O3)c(=O)[nH]1 [Example 3, 7-Chloro-N-((4,6-dimethyl-2-oxo-1,2-dihydropyridin-3-yl)methyl)-2,2-dimethyl-2,3-dihydrobenzofuran-5-carboxamide]"
11,> 1 µM,"Cc1cc(C)c(CNC(=O)c2cc(F)c3c(c2)CC(C)(C)O3)c(=O)[nH]1 [Example 4, N-((4,6-Dimethyl-2-oxo-1,2-dihydropyridin-3-yl)methyl)-7-fluoro-2,2-dimethyl-2,3-dihydrobenzofuran-5-carboxamide]"
12,> 1 µM,"Cc1cc(C)c(CNC(=O)c2cc(C)c3c(c2)CC(C)(C)O3)c(=O)[nH]1 [Example 6, N-((4,6-Dimethyl-2-oxo-1,2-dihydropyridin-3-yl)methyl)-2,2,7-trimethyl-2,3-dihydrobenzofuran-5-carboxamide]"
13,0.5 to 1 µM,"Cc1cc(C)c(CNC(=O)c2cc(Br)c3c(c2C)CC(C)(C)O3)c(=O)[nH]1 [Example 7, 7-Bromo-N-((4,6-dimethyl-2-oxo-1,2-dihydropyridin-3-yl)methyl)-2,2,4-trimethyl-2,3-dihydrobenzofuran-5-carboxamide]"
14,> 1 µM,"Cc1cc(C)c(CNC(=O)c2ccc3c(c2C)CC(C)(C)O3)c(=O)[nH]1 [Example 8, N-((4,6-Dimethyl-2-oxo-1,2-dihydropyridin-3-yl)methyl)-2,2,4-trimethyl-2,3-dihydrobenzofuran-5-carboxamide]"
15,> 1 µM,"Cc1cc(C)c(CNC(=O)c2cc(C)c3c(c2C)CC(C)(C)O3)c(=O)[nH]1 [Example 9, N-((4,6-Dimethyl-2-oxo-1,2-dihydropyridin-3-yl)methyl)-2,2,4,7-tetramethyl-2,3-dihydrobenzofuran-5-carboxamide]"
16,> 1 µM,"Cc1cc(C)c(CNC(=O)c2cc3c(c(-c4ccc(CN5CCOCC5)cc4)c2)OC(C)(C)C3)c(=O)[nH]1 [Example 10, N-((4,6-Dimethyl-2-oxo-1,2-dihydropyridin-3-yl)methyl)-2,2-dimethyl-7-(4-(morpholinomethyl)phenyl)-2,3-dihydrobenzofuran-5-carboxamide]"
17,< 0.5 µM,"Cc1cc(C)c(CNC(=O)c2cc3c(c(-c4ccc(N5CCNCC5)nc4)c2)OC(C)(C)C3)c(=O)[nH]1 [Example 11, N-((4,6-Dimethyl-2-oxo-1,2-dihydropyridin-3-yl)methyl)-2,2-dimethyl-7-(6-(piperazin-1-yl)pyridin-3-yl)-2,3-dihydrobenzofuran-5-carboxamide]"
18,< 0.5 µM,"Cc1cc(C)c(CNC(=O)c2cc3c(c(-c4ccc(N5CCOCC5)nc4)c2)OC(C)(C)C3)c(=O)[nH]1 [Example 12, N-((4,6-Dimethyl-2-oxo-1,2-dihydropyridin-3-yl)methyl)-2,2-dimethyl-7-(6-morpholinopyridin-3-yl)-2,3-dihydrobenzofuran-5-carboxamide]"
19,> 1 µM,"Cc1cc(C)c(CNC(=O)c2cc3c(c(-c4cnc5ccccc5c4)c2)OC(C)(C)C3)c(=O)[nH]1 [Example 13, N-((4,6-Dimethyl-2-oxo-1,2-dihydropyridin-3-yl)methyl)-2,2-dimethyl-7-(quinolin-3-yl)-2,3-dihydrobenzofuran-5-carboxamide]"
20,0.5 to 1 µM,"COc1ccc(-c2cc(C(=O)NCc3c(C)cc(C)[nH]c3=O)cc3c2OC(C)(C)C3)cn1 [Example 14, N-((4,6-Dimethyl-2-oxo-1,2-dihydropyridin-3-yl)methyl)-7-(6-methoxypyridin-3-yl)-2,2-dimethyl-2,3-dihydrobenzofuran-5-carboxamide]"
21,> 1 µM,"Cc1cc(C)c(CNC(=O)c2cc(/C=C/c3ccccc3)c3c(c2)CC(C)(C)O3)c(=O)[nH]1 [Example 15, (E)-N-((4,6-Dimethyl-2-oxo-1,2-dihydropyridin-3-yl)methyl)-2,2-dimethyl-7-styryl-2,3-dihydrobenzofuran-5-carboxamide]"

# Source: patent US9822103B2, “Inhibitors of lysine methyl transferase” (priority 2013, dated 2017)
